Two compounds from US9572760B2, “Uses of compounds and mixtures from Antrodia cinnamomea mycelia” (Simpson Biotech Co., Ltd., priority 2013, dated 2017) can be followed below.

The subject of one assay is HSC. The assay can be described thus: HSC apoptosis by cell death detection ELISA. It is filed as cell-based. The settings on record: 24-80 μM; 24 h, 48 h and 72 h. As to the method:
Apoptosis was detected with a sandwich immunoassay system using a cell death detection ELISA kit (Roche Diagnostic Inc.). Roche's Cell Death Detection ELISA kit qualitatively and quantitatively detects the amount of cleaved DNA/histone complexes (nucleosomes) in a given sample using a sandwich-enzyme-immunoassay-based method. The cells (1×10^4 cells/well) were seeded in 100 μl medium in a 96-well plate (Nunc, Denmark) and cultured for 24 h to allow the cells to attach and then treated with three different concentrations (8 μM, 24 μM and 80 μM) of either Compound A, B, C and D for 24 h, 48 h and 72 h and the plates were incubated in 37° C. After incubation, the 96 well plates were centrifuged for 10 min at 200×g and removed supernatant and discard, then added 200 μl of lysis buffer per well using multipipetman and incubated 30 min at room temperature, microplates were centrifuged the lysate at 200×g for 10 min. After the centrifuge, 20 μl of the supernatant was transferred into the streptavidin-coated microplate, then added 80 μl of immunoreagent to each well. The microplate was covered with an adhesive foil and incubated on a shaker under gentle shaking for 2 hour at room temperature. After the incubation period, microplates were washed three times with 250-300 μl incubation buffer and 100 μl ABTS solution was added and incubated for 30 min or until color is sufficient for photometric. ABTS Stop solution was added and absorbance of the samples was measured using ELISA reader at 405 nm, reference wavelength at 490 nm.
In general terms: ELISA stands for enzyme-linked immunosorbent assay.

In the next assay the test system is α-SMA and TGF-β1. The assay is described as follows: Western blot of α-SMA and TGF-β1 in rabbit ear scar tissue. It is filed as in vivo, New Zealand white rabbits. To be noted: 1% w/v topical; for level of TGF-β1 expression (Western blot): day 14, compared with the control groups; for levels of α-SMA expression (Western blot): relative to the control group. Here is the method:
(§1) The rabbit ear model of hypertrophic scarring was established. In brief, 12 New Zealand white rabbits, weighing 2.5 to 3.0 kg, were prepared for wounding under sterile conditions. Four 1 cm full thickness circular wounds were created down to the cartilage on the ventral side of each ear using a 1 cm punch biopsy. The perichondrial membrane was then dissected off the cartilage using a surgical blade. The test agents including compound B, C and ACM ethanol extract were applied to the wounds of the experimental group ([…] to each wound) every day in concentrations of 1% w/v for 14 days, while the control group received equal amounts of 1% w/v saline.
The scar tissues were lysed; then the protein samples were denatured and then separated on 10.6% polyacrylamide gels, and transferred to the polyvinylidene difluoride membrane. The membranes were incubated in TBS containing 5% nonfat milk and 0.05% Tween-20 for 1 h at room temperature and blotted with primary antibodies (dilution 1:300) at 4° C. overnight. The membranes were washed with TBST for 15 min the next day. Subsequently, the membranes were incubated with horseradish peroxidase-conjugated affinipure goat anti-rabbit antibody (dilution 1:3000) for 1 h at room temperature and washed with TBST for 21 min. The membranes were then detected using ECL. The western blot results were further analyzed with Quantity One software 4.1.1 (Bio-Rad, Hercules, Calif.)
(In general: A western blot detects proteins with antibodies after separation by electrophoresis.)

In another assay the test system is hypertrophic scarring. The assay can be described thus: Rabbit ear model of hypertrophic scarring: scar and epidermal thickness, histology. It is filed as in vivo, New Zealand white rabbits. The settings on record: for mean epidermal thickness (ETI) / mean scar thickness (SEI): 1% w/v applied to wounds every day for 14 days; for mean epidermal thickness (ETI): control 5.08±0.44; for mean scar thickness (SEI): day 14, control 3.71±0.31; for histology: dermis layer of scars: treated for 14 day, 1% w/v. As to the method: as §1

For the compound `CC(C)=CCOc1ccc(C2=C(CC(C)C)C(=O)NC2=O)cc1` [Compound B, 3-isobutyl-4-[4-(3-methyl-2-butenyloxy)phenyl]-1H-pyrrol-2,5-dione], the “apoptosis of HSC (cell death detection assay)” value with HSC is listed as “apoptosis of HSC”. Moreover, in the assay with α-SMA and TGF-β1, the “level of TGF-β1 expression (Western blot)” value is on record as “significantly decreased” and the “levels of α-SMA expression (Western blot)” value is listed as “decreased”. For the same compound, in the assay with hypertrophic scarring, the “mean epidermal thickness (ETI)” value is 2.23±0.31, the “mean scar thickness (SEI)” value turned out to be 1.93±0.51 and the “histology: dermis layer of scars” value was “not significantly thickened”.
Consider `CC(C)=CCOc1ccc(C2=C(CC(C)C)C(=O)N(O)C2=O)cc1` [Compound C, 3-isobutyl-4-[4-(3-methyl-2-butenyloxy)phenyl]-1H-pyrrol-1-ol-2,5-dione], for which, in the assay with HSC, the “apoptosis of HSC (cell death detection assay)” value is recorded as “apoptosis of HSC”. Moreover, in the assay with α-SMA and TGF-β1, the “level of TGF-β1 expression (Western blot)” value is on record as “significantly decreased” and the “levels of α-SMA expression (Western blot)” value is on record as “decreased”. Further, in the assay with hypertrophic scarring, the “mean epidermal thickness (ETI)” value was found to be 3.10±0.14, the “mean scar thickness (SEI)” value was 2.10±0.24 and the “histology: dermis layer of scars” value is given as “not significantly thickened”.
